Values quoted from earlier work in article PMC12123727 (BMC Cancer, 2025).

How the values were obtained:
[1] = system: DLBCL; details: patients with DLBCL, 2/19; cited from earlier work
[2] = system: r/r FL; details: patients with r/r FL, cited from earlier work

SMILES	ORR [1] [%]	objective response rate (ORR) ([2]; 19/39) [%]	median PFS [2] [months]
O=C(/C=C/c1cccc(S(=O)(=O)Nc2ccccc2)c1)NO [Belinostat, belinostat]	10.5	–	–
O=C(CCCCCCC(=O)Nc1ccccc1)NO [Vorinostat, vorinostat]	–	49	20
